Test results: US9315491B2 (DEVELOPMENT CENTER FOR BIOTECHNOLOGY, priority 2009, dated 2016)

Experiments:
PC-3 cells = assay: Antiproliferation assay (MTS), PC-3; assay type: cell-based; conditions: Homo sapiens, PC3, 72 hours of drug treatment
Protocol: (1) Antiproliferation Assay
PC-3, U-87 MG, HCC1954 and BT474 cell lines were purchased from the American Type Culture Collection (ATCC, USA). PC-3 was grown in F12K medium (GIBCO) containing 10% FBS. U-87 MG was grown in Eagle's minimum essential medium (MEM, Sigma) supplemented with nonessential amino acids, L-glutamine, sodium pyruvate, and 10% FBS. HCC1954 was grown in RPMI medium (GIBCO) containing 10% FBS. […] All cells were incubated in a humidified atmosphere containing 5% CO2 at 37° C.
Cell lines were inoculated to the wells of a 96-well culture plate with 1000-5000 cells per well. The compounds were prepared and used to treat cells with less than 1% DMSO. After 72 hours of drug treatment, the viability of each cell line was examined by CellTiter 96 Aqueous Non-Radioactive Cell Proliferation Assay (Promega). The living cells were detectable by conversion of MTS into aqueous, soluble formazan. MTS/PMS solution was freshly prepared and 20 μl of MTS/PMS solution was added to each well of the 96-well cultured plate. The assay plate was incubated for 3 hours and the absorbance at 490 nm was measured by EMax ELISA Reader (Molecular Devices). The IC50 values of compounds were determined after carrying out assays at eight serially diluted concentrations of each compound in triplicate, and are the mean of three separate determinations. The results were analyzed using linear regression software (GraphPad Prism 5; GraphPad Software Inc.).

A549 cells = assay: Antiproliferation assay (MTS), A549; assay type: cell-based; conditions: Homo sapiens; A549, 72 hours of drug treatment
recombinant mTOR = recombinant mTOR (Homo sapiens (Human), UniProt P42345); assay: mTOR kinase assay (33P incorporation into 4EBP1); assay type: biochemical; conditions: compound at 10 μM, 10 μM ATP
Method in brief: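 Recombinant human mTOR (50 ng) phosphorylated His-tagged 4EBP1 (300 ng) with 10 μM ATP plus [γ-33P]-ATP in HEPES pH 7.5, MnCl2, EGTA and DTT for 30 min at 30° C. Labelled 4EBP1 was filter-captured and counted. IC50 was derived from eight-point duplicate dilution series.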

PI3K (p110α/p85α) = PI3K (p110α/p85α) (Homo sapiens (Human), UniProt P42336); assay: PI3K HTRF enzyme assay, p110α/p85α; assay type: biochemical; conditions: read-out: % inhibition @ 500 nM p110α; compound at 500 nM, 10 μM ATP
Method in brief: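 Recombinant PI3K heterodimers with PIP2 substrate; reactions ran 30 min at room temperature with 10 μM ATP for p110α/p85α and 100 μM ATP for p110β/p85α. After stop, HTRF detection followed 17 h incubation in the dark at room temperature; HTRF ratio used as read-out.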

Sequence of recombinant mTOR (P42345 1360-2549): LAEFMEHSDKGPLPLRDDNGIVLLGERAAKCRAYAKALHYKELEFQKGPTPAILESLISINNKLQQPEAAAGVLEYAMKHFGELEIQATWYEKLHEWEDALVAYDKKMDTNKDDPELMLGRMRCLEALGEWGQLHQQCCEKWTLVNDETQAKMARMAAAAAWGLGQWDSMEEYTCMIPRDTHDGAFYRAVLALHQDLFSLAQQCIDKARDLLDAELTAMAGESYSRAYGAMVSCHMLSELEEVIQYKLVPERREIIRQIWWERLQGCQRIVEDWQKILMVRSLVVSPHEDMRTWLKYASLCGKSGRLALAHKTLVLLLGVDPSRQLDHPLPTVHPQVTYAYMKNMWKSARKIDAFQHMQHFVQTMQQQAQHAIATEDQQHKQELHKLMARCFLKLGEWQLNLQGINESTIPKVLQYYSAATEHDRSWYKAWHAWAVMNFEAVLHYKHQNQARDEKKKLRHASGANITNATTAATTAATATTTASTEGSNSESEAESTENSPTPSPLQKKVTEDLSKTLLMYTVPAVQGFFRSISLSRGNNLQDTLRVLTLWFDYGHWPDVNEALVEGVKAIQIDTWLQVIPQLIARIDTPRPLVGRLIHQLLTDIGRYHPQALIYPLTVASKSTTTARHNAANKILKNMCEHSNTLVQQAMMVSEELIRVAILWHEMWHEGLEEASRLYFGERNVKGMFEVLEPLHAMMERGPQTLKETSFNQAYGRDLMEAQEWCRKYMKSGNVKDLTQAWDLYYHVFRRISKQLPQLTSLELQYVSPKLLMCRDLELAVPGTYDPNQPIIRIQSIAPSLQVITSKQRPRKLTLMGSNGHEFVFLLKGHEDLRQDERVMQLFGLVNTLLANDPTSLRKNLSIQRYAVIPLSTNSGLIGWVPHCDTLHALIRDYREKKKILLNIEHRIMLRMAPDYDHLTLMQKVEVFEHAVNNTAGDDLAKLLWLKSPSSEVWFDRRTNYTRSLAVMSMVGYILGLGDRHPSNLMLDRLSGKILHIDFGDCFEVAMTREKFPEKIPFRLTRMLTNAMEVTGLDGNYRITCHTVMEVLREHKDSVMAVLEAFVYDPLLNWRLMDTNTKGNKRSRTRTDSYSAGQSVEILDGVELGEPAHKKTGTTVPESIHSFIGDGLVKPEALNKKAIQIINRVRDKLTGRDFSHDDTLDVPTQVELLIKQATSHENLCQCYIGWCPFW
Sequence of PI3K (p110α/p85α) (P42336 whole entry, species assumed): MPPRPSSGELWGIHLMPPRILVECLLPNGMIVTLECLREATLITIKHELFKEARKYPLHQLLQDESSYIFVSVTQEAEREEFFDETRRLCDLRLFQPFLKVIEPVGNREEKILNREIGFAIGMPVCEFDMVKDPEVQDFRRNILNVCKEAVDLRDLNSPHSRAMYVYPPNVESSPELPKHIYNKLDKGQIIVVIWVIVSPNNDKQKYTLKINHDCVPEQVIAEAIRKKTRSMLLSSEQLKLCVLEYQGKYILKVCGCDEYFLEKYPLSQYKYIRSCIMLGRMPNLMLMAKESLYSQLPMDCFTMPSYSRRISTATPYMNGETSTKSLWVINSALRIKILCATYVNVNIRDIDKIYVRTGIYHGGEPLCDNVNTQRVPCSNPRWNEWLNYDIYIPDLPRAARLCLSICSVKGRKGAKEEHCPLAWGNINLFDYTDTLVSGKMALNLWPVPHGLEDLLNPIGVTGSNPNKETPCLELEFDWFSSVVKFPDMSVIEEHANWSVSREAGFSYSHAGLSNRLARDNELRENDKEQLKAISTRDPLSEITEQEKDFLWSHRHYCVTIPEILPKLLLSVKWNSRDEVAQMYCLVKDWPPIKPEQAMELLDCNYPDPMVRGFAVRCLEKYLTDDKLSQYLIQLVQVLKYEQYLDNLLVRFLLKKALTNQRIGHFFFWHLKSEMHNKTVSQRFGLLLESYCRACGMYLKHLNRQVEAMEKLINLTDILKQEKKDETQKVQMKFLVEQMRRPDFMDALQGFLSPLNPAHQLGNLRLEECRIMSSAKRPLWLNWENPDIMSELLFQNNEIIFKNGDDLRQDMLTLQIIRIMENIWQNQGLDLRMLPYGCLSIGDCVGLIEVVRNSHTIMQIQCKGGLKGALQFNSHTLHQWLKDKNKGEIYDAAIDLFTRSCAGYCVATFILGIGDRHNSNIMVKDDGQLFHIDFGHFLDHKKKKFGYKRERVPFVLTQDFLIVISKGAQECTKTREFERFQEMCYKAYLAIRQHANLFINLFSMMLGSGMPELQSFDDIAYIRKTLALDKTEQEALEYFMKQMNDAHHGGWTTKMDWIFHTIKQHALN
Sequence of PI3K (p110α/p85α) (P27986 whole entry partner, species assumed): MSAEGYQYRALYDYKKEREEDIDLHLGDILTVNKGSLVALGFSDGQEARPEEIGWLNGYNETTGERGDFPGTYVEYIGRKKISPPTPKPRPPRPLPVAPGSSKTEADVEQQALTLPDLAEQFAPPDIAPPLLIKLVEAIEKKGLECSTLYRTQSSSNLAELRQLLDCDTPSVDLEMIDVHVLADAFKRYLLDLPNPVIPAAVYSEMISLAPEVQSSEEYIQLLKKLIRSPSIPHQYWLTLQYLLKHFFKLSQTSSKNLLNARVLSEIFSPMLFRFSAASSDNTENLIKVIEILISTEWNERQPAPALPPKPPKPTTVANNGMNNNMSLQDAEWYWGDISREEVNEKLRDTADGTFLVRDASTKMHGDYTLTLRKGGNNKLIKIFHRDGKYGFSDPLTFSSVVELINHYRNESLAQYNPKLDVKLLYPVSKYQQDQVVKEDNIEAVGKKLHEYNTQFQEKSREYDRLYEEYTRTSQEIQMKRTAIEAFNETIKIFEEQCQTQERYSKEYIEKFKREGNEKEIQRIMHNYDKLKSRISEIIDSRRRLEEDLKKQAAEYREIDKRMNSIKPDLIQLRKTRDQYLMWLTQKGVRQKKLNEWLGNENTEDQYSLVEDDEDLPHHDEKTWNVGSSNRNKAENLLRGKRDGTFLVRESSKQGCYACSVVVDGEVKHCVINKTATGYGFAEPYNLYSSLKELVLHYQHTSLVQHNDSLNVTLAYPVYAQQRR

SMILES | inhibition at 10 µM (recombinant mTOR) [%] | inhibition at 0.5 µM (PI3K (p110α/p85α)) [%] | further results
CSc1cnc(-c2ccc(NC(=O)Nc3cccc(NC(C)=O)c3)cc2)nc1N1CCOCC1 [MTR-0377, N-(3-{3-[4-(5-Methylsulfanyl-4-morpholin-4-yl-pyrimidin-2-yl)-phenyl]-ureido}-phenyl)-acetamide] | 97 |  | IC50 (PC-3 cells): 205 ± 6 nM; IC50 (A549 cells): 598 ± 18 nM
CSc1c(Cl)nc(-c2ccc(NC(=O)Nc3cccc(NC(C)=O)c3)cc2)nc1N1CCOCC1 [MTR-0270, N-(3-{3-[4-(4-Chloro-5-methylsulfanyl-6-morpholin-4-yl-pyrimidin-2-yl)-phenyl]-ureido}-phenyl)-acetamide] | 96 | 41.1 | 
CCOC(=O)c1nc(-c2ccc(NC(=O)Nc3cccc(F)c3)cc2)nc(N2CCOCC2)c1OCC [MTR-0147, 5-Ethoxy-2-{4-[3-(3-fluoro-phenyl)-ureido]-phenyl}-6-morpholin-4-yl-pyrimidine-4-carboxylic acid ethyl ester] | 95 | 52.4 | 
CSc1cnc(-c2ccc(NC(=O)Nc3ccccc3)cc2)nc1N1CCOCC1 [MTR-0162, 1-[4-(5-Methylsulfanyl-4-morpholin-4-yl-pyrimidin-2-yl)-phenyl]-3-phenyl-urea] | 95 | 102 | 
COc1cnc(-c2ccc(NC(=O)Nc3ccc(N4CCSCC4)cc3)cc2)nc1N1CCOCC1 [MTR-0262, 1-[4-(5-Methoxy-4-morpholin-4-yl-pyrimidin-2-yl)-phenyl]-3-(4-thiomorpholin-4-yl-phenyl)-urea] |  | 56.3 | 
CSc1cnc(-c2ccc(NC(=O)Nc3ccc(C(=O)O)cc3)cc2)nc1N1CCOCC1 [MTR-0316, 4-{3-[4-(5-Methylsulfanyl-4-morpholin-4-yl-pyrimidin-2-yl)-phenyl]-ureido}-benzoic acid] |  | 55.9 | 
CSc1c(Cl)nc(-c2ccc(NC(=O)Nc3ccc4oc(=O)[nH]c4c3)cc2)nc1N1CCOCC1 [MTR-0372, 1-[4-(4-Chloro-5-methylsulfanyl-6-morpholin-4-yl-pyrimidin-2-yl)-phenyl]-3-(2-oxo-2,3-dihydro-benzooxazol-5-yl)-urea] |  | 95.5 | 
CCOC(=O)c1nc(-c2ccc(NC(=O)Nc3ccc4oc(=O)[nH]c4c3)cc2)nc(N2CCOCC2)c1OCC [MTR-0299, 5-Ethoxy-6-morpholin-4-yl-2-{4-[3-(2-oxo-2,3-dihydro-benzooxazol-5-yl)-ureido]-phenyl}-pyrimidine-4-carboxylic acid ethyl ester] |  | 44.3 | 
CSc1cnc(-c2ccc(NC(=O)Nc3ccc(NS(C)(=O)=O)cc3)cc2)nc1N1CCOCC1 [MTR-0376, N-(4-{3-[4-(5-Methylsulfanyl-4-morpholin-4-yl-pyrimidin-2-yl)-phenyl]-ureido}-phenyl)-methanesulfonamide] |  | 79.4 | 
CSc1c(Cl)nc(-c2ccc(NC(=O)Nc3ccc(NS(C)(=O)=O)cc3)cc2)nc1N1CCOCC1 [MTR-0347, N-(4-{3-[4-(4-Chloro-5-methylsulfanyl-6-morpholin-4-yl-pyrimidin-2-yl)-phenyl]-ureido}-phenyl)-methanesulfonamide] |  | 80.6 | 
COc1cnc(-c2ccc(NC(=O)Nc3ccc(N4CCOCC4)cc3)cc2)nc1N1CCOCC1 [MTR-0261, 1-[4-(5-Methoxy-4-morpholin-4-yl-pyrimidin-2-yl)-phenyl]-3-(4-morpholin-4-yl-phenyl)-urea] |  | 58.4 | 
CSc1c(Cl)nc(-c2ccc(NC(=O)Nc3ccc(C(=O)N4CCN(C)CC4)cc3)cc2)nc1N1CCOCC1 [MTR-0271, 1-[4-(4-Chloro-5-methylsulfanyl-6-morpholin-4-yl-pyrimidin-2-yl)-phenyl]-3-[4-(4-methyl-piperazine-1-carbonyl)-phenyl]-urea] |  | 94.5 | 
COc1cnc(-c2ccc(NC(=O)Nc3ccc(C(=O)NCCCN(C)C)cc3)cc2)nc1N1CCOCC1 [MTR-0427, N-(3-Dimethylamino-propyl)-4-{3-[4-(5-methoxy-4-morpholin-4-yl-pyrimidin-2-yl)-phenyl]-ureido}-benzamide] |  | 71.1 | 

More lines, main results first:

inhibition at 10 µM (recombinant mTOR) [%] | inhibition at 0.5 µM (PI3K (p110α/p85α)) [%] | SMILES | further results
96 | 52.7 | CCOc1c(CN2CCN(S(C)(=O)=O)CC2)nc(-c2ccc(NC(=O)Nc3ccccc3)cc2)nc1N1CCOCC1 [MTR-0169, 1-{4-[5-Ethoxy-4-(4-methanesulfonyl-piperazin-1-ylmethyl)-6-morpholin-4-yl-pyrimidin-2-yl]-phenyl}-3-phenyl-urea] | 
90 | 48.8 | CSc1cnc(-c2ccc(NC(=O)Nc3ccc(F)cc3)cc2)nc1N1CCOCC1 [MTR-0178, 1-(4-Fluoro-phenyl)-3-[4-(5-methylsulfanyl-4-morpholin-4-yl-pyrimidin-2-yl)-phenyl]-urea] | 
91 | 84.7 | COc1cnc(-c2ccc(NC(=O)Nc3cccc(F)c3)cc2)nc1N1CCOCC1 [MTR-0164, 1-(3-Fluoro-phenyl)-3-[4-(5-methoxy-4-morpholin-4-yl-pyrimidin-2-yl)-phenyl]-urea] | 
96 | 85.4 | CSc1c(OCCN(C)C)nc(-c2cccc(O)c2)nc1N1CCOCC1 [MTR-0043, 3-[4-(2-Dimethylamino-ethoxy)-5-methylsulfanyl-6-morpholin-4-yl-pyrimidin-2-yl]-phenol] | 
 | 66.9 | CSc1cnc(-c2ccc(NC(=O)Nc3ccc(S(C)(=O)=O)cc3)cc2)nc1N1CCOCC1 [MTR-0404, 1-(4-Methanesulfonyl-phenyl)-3-[4-(5-methylsulfanyl-4-morpholin-4-yl-pyrimidin-2-yl)-phenyl]-urea] | 
 | 58.6 | CCOc1cnc(-c2ccc(NC(=O)Nc3ccc(N4CCN(S(C)(=O)=O)CC4)cc3)cc2)nc1N1CCOCC1 [MTR-0420, 1-[4-(5-Ethoxy-4-morpholin-4-yl-pyrimidin-2-yl)-phenyl]-3-[4-(4-methanesulfonyl-piperazin-1-yl)-phenyl]-urea] | 
 | 75.4 | COc1cnc(-c2ccc(NC(=O)Nc3ccc(NS(C)(=O)=O)cc3)cc2)nc1N1CCOCC1 [MTR-0449, N-(4-{3-[4-(5-Methoxy-4-morpholin-4-yl-pyrimidin-2-yl)-phenyl]-ureido}-phenyl)-methanesulfonamide] | 
 | 94.8 | COc1cnc(-c2ccc(NC(=O)Nc3ccc(N4CCOCC4=O)cc3)cc2)nc1N1CCOCC1 [MTR-0241, 1-[4-(5-Methoxy-4-morpholin-4-yl-pyrimidin-2-yl)-phenyl]-3-[4-(3-oxo-morpholin-4-yl)-phenyl]-urea] | 
 | 95.5 | CSc1c(Cl)nc(-c2ccc(NC(=O)Nc3ccc(C(N)=O)cc3)cc2)nc1N1CCOCC1 [MTR-0257, 4-{3-[4-(4-Chloro-5-methylsulfanyl-6-morpholin-4-yl-pyrimidin-2-yl)-phenyl]-ureido}-benzamide] | 
 | 96.3 | COc1cnc(-c2ccc(NC(=O)Nc3ccc(N4CCOCC4)c(F)c3)cc2)nc1N1CCOCC1 [MTR-0242, 1-(3-Fluoro-4-morpholin-4-yl-phenyl)-3-[4-(5-methoxy-4-morpholin-4-yl-pyrimidin-2-yl)-phenyl]-urea] | 
 | 42.6 | CCOC(=O)c1nc(-c2ccc(NC(=O)Nc3cccnc3)cc2)nc(N2CCOCC2)c1OCC [MTR-0205, 5-Ethoxy-6-morpholin-4-yl-2-[4-(3-pyridin-3-yl-ureido)-phenyl]-pyrimidine-4-carboxylic acid ethyl ester] | 
 | 83 | COc1cnc(-c2ccc(NC(=O)Nc3ccc(F)cc3)cc2)nc1N1CCOCC1 [MTR-0152, 1-(4-Fluoro-phenyl)-3-[4-(5-methoxy-4-morpholin-4-yl-pyrimidin-2-yl)-phenyl]-urea] | 
 | 66.3 | CCOc1cnc(-c2ccc(NC(=O)Nc3ccncc3)cc2)nc1N1CCOCC1 [MTR-0446, 1-[4-(5-Ethoxy-4-morpholin-4-yl-pyrimidin-2-yl)-phenyl]-3-pyridin-4-yl-urea] | 
92 | 60.9 | CSc1c(Cl)nc(-c2ccc(NC(=O)Nc3ccccc3)cc2)nc1N1CCOCC1 [MTR-0091, 1-[4-(4-Chloro-5-methylsulfanyl-6-morpholin-4-yl-pyrimidin-2-yl)-phenyl]-3-phenyl-urea] | 
 | 93.4 | CSc1cnc(-c2ccc(NC(=O)Nc3ccc(C(=O)N4CCOCC4)cc3)cc2)nc1N1CCOCC1 [MTR-0461, 1-[4-(5-Methylsulfanyl-4-morpholin-4-yl-pyrimidin-2-yl)-phenyl]-3-[4-(morpholine-4-carbonyl)-phenyl]-urea] | 
